Measured values taken from US20080221163A1, “Selective Estrogen Receptor Modulators” (priority 2005, published 2008).
Structures can show the parent of a compound that is named as a salt. Where two headings read alike, the source gives them in different places.

Assays:
[1] = test system: Ishikawa human endometrial tumor cells; experiment: Ishikawa Cell Proliferation Assay (alkaline phosphatase readout; agonist and antagonist modes); assay type: cell-based; details: for stimulation compared with tamoxifen: compound alone
Method: Ishikawa Cell Proliferation Assay: This assay measures cell proliferation (using an alkaline phosphatase readout) in both an agonist mode in the presence of a compound of the present invention alone, and in an antagonist mode in which the ability of a compound of the present invention to block estradiol stimulation of growth is measured.
Ishikawa human endometrial tumor cells are maintained in MEM (minimum essential medium, with Earle's salts and L-Glutamine, Gibco BRL, Gaithersburg, Md.), supplemented with 10% fetal bovine serum (FBS) (V/V), (Gibco BRL). One day prior to assay, growth media is changed to assay medium, DMEM/F-12 (3:1) (Dulbecco's Modified Eagle Medium: Nutrient Mixture F-12, 3:1 Mixture, phenol red-free, Gibco BRL) supplemented with 5% dextran coated charcoal stripped fetal bovine serum (DCC-FBS) (Hyclone, Logen, Utah), L-Glutamine (2 mM), MEM sodium pyruvate (1 mM), HEPES (N-[2-hydroxyethyl]piperazine-N′-[2-ethanesulfonic acid] 2 mM) all from Gibco BRL). After an overnight incubation, Ishikawa cells are rinsed with Dulbecco's Phosphate Buffered Saline (1×) (D-PBS) without Ca^+2 and Mg^+2 (Gibco BRL), and trypsinized by a 3 minute incubation with 0.25% Trypsin/EDTA, phenol red-free (Gibco BRL). Cells are resuspended in assay medium and adjusted to 250,000 cells/mL. Approximately 25,000 cells in a 100 μl media are added to flat-bottom 96 wells microculture plates (Costar 3596) and incubated at 37° C. in a 5% CO2 humidified incubator for 24 hours. The next day, serial dilutions of compounds are prepared in assay medium (at 6 times the final concentration in the assay). The assay is run in dual mode, agonist and antagonist modes.
For the agonist mode, plates receive 25 μl/well of assay medium followed by 25 μl/well of a diluted compound of the present invention (at 6× the final concentrations). For the antagonist mode, plates receive 25 μl/well of 6 nM E2 (β-Estradiol, Sigma, St. Louis, Mo.) followed by 25 μl/well of a diluted compound of the present invention (at 6× the final concentrations). After an additional 48-hour incubation at 37° C. in a 5% CO2 humidified incubator, media is aspirated from wells and 100 μl fresh assay medium is added to each microculture. Serial dilutions of compounds are prepared and added to the cells as described above. After an additional 72 hour incubation at 37° C. in a 5% CO2 humidified incubator, the assay is quenched by removing media and rinsing plates twice in Dulbecco's Phosphate Buffered Saline (1×) (D-PBS) (Gibco BRL). The plates are dried for 5 minutes and frozen at −70° C. for at least 1 hour. The plates are then removed from the freezer and allowed to thaw at room temperature. To each well, 100 μl of 1-Step™ PNPP (Pierce Chemical Company, Rockford, Ill.) is added. After a 20-minute incubation, plates are read on a spectophotometer at 405 nm.
The data is fitted to a linear interpolation to derive EC50 (for agonist mode) or IC50 (for antagonist mode) values. For the antagonist mode, a % efficacy for each compound is calculated versus E2 (1 nM) alone. For the agonist mode, a % efficacy for each compound is calculated versus the response to tamoxifen.

[2] = test system: estrogen-induced response; experiment: 3-Day Rat Uterus Antagonist Assay; assay type: in vivo; details: immature female rats, oral, 3 days, with E2 0.1 mg/kg; for inhibition of the estrogen-induced response (uterine weight/body weight ratio): administered at 0.01, 0.1 and 1.0 mg/kg
Excerpt: 3-Day Rat Uterus Antagonist Assay: This model for uterine antagonism utilizes immature (3 week old) female rats that are highly sensitive to estrogenic stimulation of the uterus given that their circulating estrogen levels are prepubertal. The uteri from immature rats are fully responsive to exogenous estrogen, yet are quiescent in the absence of exogenous estrogen. Administration of exogenous estrogen to immature rats produces a reliable elevation of uterine weight, which can be used to study uterine antagonist effects. The rats are treated with both estradiol and 4 different concentrations of a compound of the present invention for 3 days and then uterine wet weights are measured.
Nineteen to twenty-one day old (or 45-50 g) female rats are orally treated with E2 (0.1 mg/kg, a maximal stimulatory estrogenic stimulus for reliably increasing uterine weight) and 10, 1.0, 0.1 and 0.01 mg/kg test compound for 3 days, 6 rats per group. Test compounds are dissolved in 20% β-hydroxycyclodextrin and administered by oral gavage in a volume of 0.2 mL daily (15 min. prior to the ethynyl estradiol gavage). A vehicle control, E2 alone and E2+raloxifene are also done as controls. The animals are fasted overnight following the final dose. On the following morning, the animals are weighed, then euthanized (by carbon dioxide asphyxiation) and the uteri rapidly collected (via a mid-line ventral incision) and weighed.
Uterine weight/body weight ratios (UWR) are calculated for each animal. The percent inhibition of the estrogen-induced response is then calculated by the following formula: percent inhibition=100×(UWRestrogen−UWRtest compound/UWRestrogen−UWRcontrol). ED50 values are derived from a semi-log regression analysis of the linear aspect of the dose response curve. Both the UWR data and the percent inhibition data are statistically analyzed by one way analysis of variance (ANOVA) with post-hoc testing by Fisher's PLSD when indicated by a p≦0.05. Statistical analyses are performed using the Statview® 4.0 software package.

[3] = 10-Day Rat Hormone (Ovarian Stimulation) Screen; assay type: in vivo; details: mature F344 female rats, oral gavage 10 days, serum about 2 hours after 10th dose, RIA
Method: 10-Day Rat Hormone (Ovarian Stimulation) Screen: An initial, first screen for ovarian toxicity is conducted using a 10-day rat hormone study to measure estradiol and luteinizing hormone levels after compound administration. This screen is conducted by administering compound by oral gavage for 10 days to mature (9-10 week old) F344 female rats. Trunk blood is collected by rapid decapitation for evaluation of LH and estradiol levels approximately 2 hours after the 10th dose. Serum, obtained by centrifugation, is removed and stored frozen below −60° C. until assayed. Serum levels of LH and estradiol are measured using radioimmunoassay (RIA) methods.
Rat LH primary antibody and reference preparations (rat LH:RP-3) are obtained from Dr. A. F. Parlow, Director, Pituitary Hormones and Antisera Center, Harbor-UCLA Medical Center, Torrance, Calif. The LH assay upper limits of detection are 30 ng/mL and the lower limits of detection are 0.1 ng/mL for the 100 μl samples.
E2 Clinical Assays. DiaSorin s.r.l., Saluggia (Vercelli), Italy. The upper limit of detection is 1000 pg/mL and the lower limit of detection is 5 pg/mL.

`CSc1ccc2c(c1)OC(c1ccc(OCCN3CCCCC3)cc1)c1c-2ccc2cc(O)ccc12.Cl` (centres unmarked) [Example 1, 8-Methylsulfanyl-5-[4-(2-piperidin-1-yl-ethoxy)-phenyl-5H-6-oxa-chrysen-2-ol hydrochloride] gave an Emax ([1]; Homo sapiens, Ishikawa, agonist mode, % efficacy versus the response to tamoxifen, read-out: relative % efficacy) of 26%, an IC50 ([1]; Homo sapiens, Ishikawa, antagonist mode, block of estradiol stimulation) of 45 nM and an Emax ([1]; Homo sapiens, Ishikawa, antagonist mode, versus E2 (1 nM) alone, read-out: % efficacy) of 92%.

For `CSc1ccc2c(c1)OC(c1ccc(OCCN3CCCCC3)cc1)c1c-2ccc2cc(O)ccc12.Cl` (centres unmarked) [Example 1], the “stimulation compared with tamoxifen” value ([1]; agonist mode) was “less stimulatory than tamoxifen”, the “% antagonism” value [2] was 69% and the ED50 [2] was 0.22 mpk. For the same molecule, the “inhibition of the estrogen-induced response (uterine weight/body weight ratio)” value [2] was “inhibit the estrogen-induced response”.

For `CCS(=O)(=O)c1ccc2c(c1)OC(c1ccc(OCCN3CCCCC3)cc1)c1c-2ccc2cc(O)ccc12.Cl` (centres unmarked) [Example 7, 8-Ethanesulfonyl-5-[4-(2-piperidin-1-yl-ethoxy)-phenyl]-5H-6-oxa-chrysen-2-ol hydrochloride salt], the “stimulation compared with tamoxifen” value ([1]; agonist mode) was “less stimulatory than tamoxifen”.

For `CS(=O)(=O)c1ccc2c(c1)OC(c1ccc(OCCN3CCCCC3)cc1)c1c-2ccc2cc(O)ccc12` (racemic) [Example 3, 8-Methanesulfonyl-5-[4-(2-piperidin-1-yl-ethoxy)-phenyl]-5H-6-oxa-chrysen-2-ol, mono-Hydrochloride salt], the “stimulation compared with tamoxifen” value ([1]; agonist mode) was “less stimulatory than tamoxifen”, the “% antagonism” value [2] was 81% and the ED50 [2] was 0.17 mpk. For the same molecule, the “inhibition of the estrogen-induced response (uterine weight/body weight ratio)” value [2] was “inhibit the estrogen-induced response”, the “circulating LH levels” value [3] was “did not significantly elevate” and the circulating estradiol levels [3] was “did not significantly elevate”.

With `CNS(=O)(=O)c1ccc2c(c1)OC(c1ccc(OCCN3CCCCC3)cc1)c1c-2ccc2cc(O)ccc12.Cl` (centres unmarked) [Example 5, 8-N-methyl sulfonamide-5-[4-(2-piperidin-1-yl-ethoxy)-phenyl]-5H-6-oxacbrysen-2-ol] the “stimulation compared with tamoxifen” value ([1]; agonist mode) was “less stimulatory than tamoxifen”.

For `CS(=O)(=O)c1ccc2c(c1)-c1ccc3cc(O)ccc3c1C(c1ccc(OCCN3CCCCC3)cc1)O2.Cl` (centres unmarked) [Example 10, 9-Methanesulfonyl-5-[4-(2-piperidin-1-yl-ethoxy)-phenyl]-5H-6-oxa-chrysen-2-ol hydrochloride salt], the “stimulation compared with tamoxifen” value ([1]; agonist mode) was “less stimulatory than tamoxifen”.

In the case of `CNS(=O)(=O)c1ccc2c(c1)-c1ccc3cc(O)ccc3c1C(c1ccc(OCCN3CCCCC3)cc1)O2.Cl` (centres unmarked) [Example 9, 2-Hydroxy-5-[4-(2-piperidin-1-yl-ethoxy)-phenyl]-5H-6-oxa-chrysen-9-sulfonic acid methylamide hydrochloride salt], the “stimulation compared with tamoxifen” value ([1]; agonist mode) is reported as “less stimulatory than tamoxifen”.
